In US11965039B2, “Compstatin analogues and their medical uses” (priority 2018, dated 2024):
Starred links: 1 amine or outer side, 2 acyl side, 3 side chain; linkers in the order of their positions; H or OH if unused. Positions of bridges follow the written chain, without caps; N, C: chain ends. Non-standard residues stand in square brackets, D forms with d. Residues, ends and D or L forms follow the SMILES beside them. Groups on a side chain read outwards from the residue. *: point of attachment. Trp(1-Me) = Cn1cc(C[C@H](N)C(=O)O)c2ccccc21; C18 diacid = O=C(O)CCCCCCCCCCCCCCCCC(=O)*; C16 diacid = O=C(O)CCCCCCCCCCCCCCC(=O)*; γGlu = O=C(O)[C@H](CCC(=O)[*:2])N[*:1]; AEEA = NCCOCCOCC(=O)O; Aoc = NCCCCCCCC(=O)O; Sar = CNCC(=O)O

test system: classical complement pathway; experiment: In vitro haemolysis assay (inhibition of classical complement pathway); assay type: cell-based, human; settings: human serum, sensitized sheep red blood cells; Table 3, given as upper bounds; read-out: IC50, inhibition of hemolysis
Experimental: The in vitro effect of the compounds of the present invention was assessed by measuring their inhibitory effect of the classical complement pathway in a haemolysis assay. Briefly, compounds of the present invention and reference compounds were dissolved in DMSO and diluted in Tris/Casein Assay Buffer (10 mM Tris, 145 mM NaCl, 0.5 mM MgCl2, 0.15 mM CaCl2), and 0.1% W/V Casein, adjusted to pH 7.4) as 9-point serial dilutions in a 96 well plate. Sensitized sheep red blood cells (RBC) coated with rabbit anti-sheep erythrocyte antiserum (Complement Technology, Inc., TX, USA) were washed in Tris/Casein Assay Buffer. […] from each well of diluted compound was added to a 96-well plate containing 50 μL diluted human serum (Complement Technology, Inc., TX, USA) and incubated for 15 minutes at room temperature. The serum dilution factor was optimized for every serum batch to obtain 70-90% of maximal haemolysis using the protocol. Then 50 μL sensitized sheep red blood cells were added to all wells (10^7 per well). After 30 minutes of incubation at 37 QC with gentle agitation, the reaction was stopped by addition of 50 μL Tris STOP Buffer per well (10 mM EDTA, 10 mM Tris, 145 mM NaCl adjusted to pH 7.4). The RBCs were then removed by centrifugation and the resulting supernatant measured for hemolysis by absorbance at 405 nm. The response was normalized relative to a positive and negative control (vehicle) to calculate the IC50 from the concentration response curve using the 4-parameter logistic (4PL) nonlinear model for curve fitting.

Row | Structure (SMILES) | IC50
1 | CC[C@H](C)[C@@H]1NC(=O)[C@@H](NC(=O)[C@H](Cc2ccccc2)NC(=O)[C@H](CCC(=O)O)NC(=O)[C@H](CO)NC(C)=O)CSSC[C@@H](C(=O)N[C@H](C(=O)N[C@@H](CCC(=O)O)C(=O)NCC(=O)N[C@@H](CCC(=O)O)C(=O)NCCCCCCCC(=O)N[C@@H](CCC(=O)O)C(=O)N[C@@H](CCCCNC(=O)CC[C@H](NC(=O)CNC(=O)CC[C@H](NC(=O)CCCCCCCCCCCCCCCCC(=O)O)C(=O)O)C(=O)O)C(N)=O)[C@@H](C)O)NC(=O)[C@H](CCCNC(=N)N)NC(=O)[C@H](Cc2c[nH]cn2)NC(=O)[C@H](CCC(=O)O)NC(=O)CNC(=O)[C@H](Cc2c[nH]c3ccccc23)NC(=O)[C@H](CC(=O)O)NC(=O)[C@H](CCC(N)=O)NC(=O)[C@H](Cc2cn(C)c3ccccc23)NC1=O [Compound 137] (Ac-SEFCI[Trp(1-Me)]QDWGEHRCTEGE[Aoc]EK([γGlu-Gly-γGlu-C18 diacid])-NH2; disulfide 4-14) | < 100 nM
2 | CC[C@H](C)[C@H](NC(C)=O)C(=O)N[C@H]1CSSC[C@@H](C(=O)N[C@H](C(=O)N[C@@H](CCC(=O)O)C(N)=O)[C@@H](C)O)NC(=O)[C@H](CCCNC(=N)N)NC(=O)[C@H](Cc2c[nH]cn2)NC(=O)[C@H](CCC(=O)O)NC(=O)CNC(=O)[C@H](Cc2c[nH]c3ccccc23)NC(=O)[C@H](CC(=O)O)NC(=O)[C@H](CCC(N)=O)NC(=O)[C@H](Cc2c[nH]c3ccccc23)NC(=O)[C@H]([C@@H](C)CC)NC1=O [Compound 26] (Ac-ICIWQDWGEHRCTE-NH2; disulfide 2-12) | < 100 nM
3 | CC[C@H](C)[C@H](NC(C)=O)C(=O)N[C@H]1CSSC[C@@H](C(=O)N[C@@H](CCC(=O)O)C(N)=O)NC(=O)[C@H](CCCNC(=N)N)NC(=O)[C@H](Cc2c[nH]cn2)NC(=O)[C@H](C)NC(=O)CNC(=O)[C@H](Cc2c[nH]c3ccccc23)NC(=O)[C@H](CC(=O)O)NC(=O)[C@H](CCC(N)=O)NC(=O)[C@H](Cc2c[nH]c3ccccc23)NC(=O)[C@H]([C@@H](C)CC)NC1=O [Compound 12] (Ac-ICIWQDWGAHRCE-NH2; disulfide 2-12) | < 100 nM
4 | CC[C@H](C)[C@@H]1NC(=O)[C@@H](NC(=O)[C@H](Cc2ccccc2)NC(=O)[C@H](CCC(=O)O)NC(=O)CNC(C)=O)CSSC[C@@H](C(=O)N(C)CC(=O)N[C@@H](CCC(=O)O)C(=O)N[C@@H](C)C(N)=O)NC(=O)[C@H](CCCNC(=N)N)NC(=O)[C@H](Cc2c[nH]cn2)NC(=O)[C@H](CCC(=O)O)NC(=O)CNC(=O)[C@H](Cc2c[nH]c3ccccc23)NC(=O)[C@H](CC(=O)O)NC(=O)[C@H](CCC(N)=O)NC(=O)[C@H](Cc2cn(C)c3ccccc23)NC1=O [Compound 87] (Ac-GEFCI[Trp(1-Me)]QDWGEHRC[Sar]EA-NH2; disulfide 4-14) | < 100 nM
5 | CC[C@H](C)[C@H](NC(C)=O)C(=O)N[C@H]1CSSC[C@@H](C(=O)N[C@H](C(N)=O)[C@@H](C)O)NC(=O)[C@H](CCCNC(=N)N)NC(=O)[C@H](Cc2c[nH]cn2)NC(=O)[C@H](CO)NC(=O)CNC(=O)[C@H](Cc2c[nH]c3ccccc23)NC(=O)[C@H](CC(=O)O)NC(=O)[C@H](CCC(N)=O)NC(=O)[C@H](Cc2c[nH]c3ccccc23)NC(=O)[C@H]([C@@H](C)CC)NC1=O [Compound 6] (Ac-ICIWQDWGSHRCT-NH2; disulfide 2-12) | < 250 nM
6 | CC[C@H](C)[C@@H]1NC(=O)[C@@H](NC(=O)[C@H](Cc2ccc(O)cc2)NC(=O)[C@H](CCC(=O)O)NC(=O)[C@H](CO)NC(C)=O)CSSC[C@@H](C(=O)N(C)CC(=O)N[C@@H](CCC(=O)O)C(=O)N[C@@H](CCCCN)C(=O)N[C@@H](CCC(=O)N[C@@H](C)C(=O)N[C@@H](CCCCNC(=O)COCCOCCNC(=O)CC[C@H](NC(=O)COCCOCCNC(=O)CNC(=O)CC[C@H](NC(=O)CCCCCCCCCCCCCCCCC(=O)O)C(=O)O)C(=O)O)C(N)=O)C(=O)O)NC(=O)[C@H](CCCNC(=N)N)NC(=O)[C@H](Cc2c[nH]cn2)NC(=O)[C@H](CCC(=O)O)NC(=O)CN(C)C(=O)[C@H](Cc2c[nH]c3ccccc23)NC(=O)[C@H](CCC(=O)O)NC(=O)[C@H](CCC(N)=O)NC(=O)[C@H](Cc2cn(C)c3ccccc23)NC1=O [Compound 121, Ac-SEYC(1)I[1-Me-Trp]QEW[Sar]EHRC(1)[Sar]EK[γGlu]A-K([17-carboxy-heptadecanoyl][γGlu]G[Peg3][γGlu][Peg3])-NH2] (Ac-SEYCI[Trp(1-Me)]QEW[Sar]EHRC[Sar]EK[γGlu]AK([AEEA-γGlu-AEEA-Gly-γGlu-C18 diacid])-NH2; disulfide 4-14) | < 250 nM
7 | CC[C@H](C)[C@H](NC(C)=O)C(=O)N[C@H]1CSSC[C@@H](C(=O)N[C@H](C(N)=O)[C@@H](C)O)NC(=O)[C@H](CCCNC(=N)N)NC(=O)[C@H](Cc2c[nH]cn2)NC(=O)[C@H](CCCNC(=N)N)NC(=O)CNC(=O)[C@H](Cc2c[nH]c3ccccc23)NC(=O)[C@H](CC(=O)O)NC(=O)[C@H](CCC(N)=O)NC(=O)[C@H](Cc2c[nH]c3ccccc23)NC(=O)[C@H]([C@@H](C)CC)NC1=O [Compound 18] (Ac-ICIWQDWGRHRCT-NH2; disulfide 2-12) | < 100 nM
8 | CC[C@H](C)[C@H](NC(C)=O)C(=O)N[C@H]1CSSC[C@@H](C(=O)N[C@H](C(=O)N[C@@H](CCC(=O)O)C(=O)NCC(=O)N[C@@H](CCC(=O)O)C(=O)N[C@@H](CCCCNC(=O)COCCOCCNC(=O)COCCOCCNC(=O)CC[C@H](NC(=O)CCCCCCCCCCCCCCCCC(=O)O)C(=O)O)C(N)=O)[C@@H](C)O)NC(=O)[C@H](CCCNC(=N)N)NC(=O)[C@H](Cc2c[nH]cn2)NC(=O)[C@H](CCC(=O)O)NC(=O)CNC(=O)[C@H](Cc2c[nH]c3ccccc23)NC(=O)[C@H](CC(=O)O)NC(=O)[C@H](CCC(N)=O)NC(=O)[C@H](Cc2c[nH]c3ccccc23)NC(=O)[C@H]([C@@H](C)CC)NC1=O [Compound 97] (Ac-ICIWQDWGEHRCTEGEK([AEEA-AEEA-γGlu-C18 diacid])-NH2; disulfide 2-12) | < 250 nM
9 | CC[C@H](C)[C@@H]1NC(=O)[C@@H](NC(=O)[C@H](Cc2ccccc2)NC(=O)[C@H](CCC(=O)O)NC(=O)[C@H](CO)NC(C)=O)CSSC[C@@H](C(=O)N[C@H](C(=O)N[C@@H](CCC(=O)O)C(=O)NCC(=O)N[C@@H](CCC(=O)O)C(=O)NCCOCCOCC(=O)N[C@@H](CCC(=O)O)C(=O)N[C@@H](CO)C(=O)N[C@@H](CCCCNC(=O)CC[C@H](NC(=O)CCCCCCCCCCCCCCCCC(=O)O)C(=O)O)C(N)=O)[C@@H](C)O)NC(=O)[C@H](CCCNC(=N)N)NC(=O)[C@H](Cc2c[nH]cn2)NC(=O)[C@H](CCC(=O)O)NC(=O)CNC(=O)[C@H](Cc2c[nH]c3ccccc23)NC(=O)[C@H](CC(=O)O)NC(=O)[C@H](CCC(N)=O)NC(=O)[C@H](Cc2cn(C)c3ccccc23)NC1=O [Compound 142] (Ac-SEFCI[Trp(1-Me)]QDWGEHRCTEGE[AEEA]ESK([γGlu-C18 diacid])-NH2; disulfide 4-14) | < 100 nM
10 | CC[C@H](C)[C@@H]1NC(=O)[C@@H](NC(=O)[C@H](Cc2ccccc2)NC(=O)[C@H](CCC(=O)O)NC(=O)[C@H](CO)NC(C)=O)CSSC[C@@H](C(=O)N[C@H](C(=O)N[C@@H](CCC(=O)O)C(=O)N[C@@H](CCCCN)C(=O)N[C@@H](CCC(=O)NCC(=O)NCC(=O)NCC(=O)N[C@@H](CCCCNC(=O)CC[C@H](NC(=O)CNC(=O)CC[C@H](NC(=O)CCCCCCCCCCCCCCCCC(=O)O)C(=O)O)C(=O)O)C(N)=O)C(=O)O)[C@@H](C)O)NC(=O)[C@H](CCCNC(=N)N)NC(=O)[C@H](Cc2c[nH]cn2)NC(=O)[C@H](CCC(=O)O)NC(=O)CNC(=O)[C@H](Cc2c[nH]c3ccccc23)NC(=O)[C@H](CC(=O)O)NC(=O)[C@H](CCC(N)=O)NC(=O)[C@H](Cc2cn(C)c3ccccc23)NC1=O [Compound 133] (Ac-SEFCI[Trp(1-Me)]QDWGEHRCTEK[γGlu]GGGK([γGlu-Gly-γGlu-C18 diacid])-NH2; disulfide 4-14) | < 100 nM
11 | CC[C@H](C)[C@H](NC(=O)[C@H](C)NC(=O)[C@H](CO)NC(=O)CNC(=O)[C@H](CCCCNC(=O)COCCOCCNC(=O)COCCOCCNC(=O)CC[C@H](NC(=O)CCCCCCCCCCCCCCC(=O)O)C(=O)O)NC(C)=O)C(=O)N[C@H]1CSSC[C@@H](C(=O)N[C@H](C(=O)N[C@@H](CCC(=O)O)C(=O)NCC(=O)N[C@@H](CCC(=O)O)C(N)=O)[C@@H](C)O)NC(=O)[C@H](CCCNC(=N)N)NC(=O)[C@H](Cc2c[nH]cn2)NC(=O)[C@H](CCC(=O)O)NC(=O)CNC(=O)[C@H](Cc2c[nH]c3ccccc23)NC(=O)[C@H](CC(=O)O)NC(=O)[C@H](CCC(N)=O)NC(=O)[C@H](Cc2c[nH]c3ccccc23)NC(=O)[C@H]([C@@H](C)CC)NC1=O [Compound 100] (Ac-K([AEEA-AEEA-γGlu-C16 diacid])GSAICIWQDWGEHRCTEGE-NH2; disulfide 6-16) | < 500 nM

same assay, conditions: human serum, sensitized sheep red blood cells; Table 4, valine 3 vs isoleucine 3 pairs; read-out: CP hemolysis IC50

Row | Structure (SMILES) | IC50
12 | CC[C@H](C)[C@H](NC(C)=O)C(=O)N[C@H]1CSSC[C@@H](C(=O)N[C@H](C(=O)N[C@@H](CCC(=O)O)C(=O)NCC(=O)N[C@@H](CCC(=O)O)C(N)=O)[C@@H](C)O)NC(=O)[C@H](CCCNC(=N)N)NC(=O)[C@H](Cc2c[nH]cn2)NC(=O)[C@H](CCC(=O)O)NC(=O)CNC(=O)[C@H](Cc2c[nH]c3ccccc23)NC(=O)[C@H](CC(=O)O)NC(=O)[C@H](CCC(N)=O)NC(=O)[C@H](Cc2c[nH]c3ccccc23)NC(=O)[C@H](C(C)C)NC1=O [J, reference compound] (Ac-ICVWQDWGEHRCTEGE-NH2; disulfide 2-12) | 240 nM
13 | CC[C@H](C)[C@H](NC(C)=O)C(=O)N[C@H]1CSSC[C@@H](C(=O)N[C@H](C(N)=O)[C@@H](C)O)NC(=O)[C@H](CCCNC(=N)N)NC(=O)[C@H](Cc2c[nH]cn2)NC(=O)[C@H](CO)NC(=O)CNC(=O)[C@H](Cc2c[nH]c3ccccc23)NC(=O)[C@H](CC(=O)O)NC(=O)[C@H](CCC(N)=O)NC(=O)[C@H](Cc2c[nH]c3ccccc23)NC(=O)[C@H]([C@@H](C)CC)NC1=O [Compound 6] (Ac-ICIWQDWGSHRCT-NH2; disulfide 2-12) | 140 nM
